Assay results from patent US8702684B2, “Therapeutic hybrid implantable devices” (University of Miami, priority 2007, dated 2014).
“Also recorded” adds a separate entry of the source.

Key:
Format in all cases: in vivo, rat
[1] = tested on: islet allografts in diabetic Lewis rats; experiment: Allogeneic islet graft survival in hybrid devices with local immunosuppression via micro-osmotic pump after weaning of systemic immunosuppression; conditions: local delivery by micro-osmotic pump 0.25 microL/h, dexamethasone phosphate 20 mg/L, loteprednol etabonate 0.2, 0.5, 10 mg/L, S1P receptor agonist 50 mg/L, controls rejected within 2 weeks of stopping systemic immunosuppression
Source text: Forty days before islet transplantation, the rats were implanted with a hybrid device of the invention with a plunger-containing device in the subcutaneous space as described in Example 3. Allogeneic islets (7,000 IE isolated from Wistar Furth rats) were then deposited into the neovascularized spaces of the hybrid devices, and after the transplantation, the animals' glucose levels were monitored daily as described in Examples 1 and 3. Post-transplantation, all animals received systemic immunosuppression treatment consisting of a single-dose induction treatment with T-cell depleting anti-lymphocyte serum (ALS) given intravenously on day −3. Starting on the day of islet transplantation, systemic maintenance immunosuppression with mycophenolic acid (MPA, 20 mg/kg) was given daily orally for at least three weeks. […] After at least two weeks of treatment, systemic immunosuppression was tapered and discontinued, while the local immunosuppression was maintained. For example, a typical weaning protocol of systemic treatment consisted of 25% reduction of MPA for two consecutive days over an 8-day period. FIG. 25 illustrates an experimental protocol of transient systemic immunosuppression combined with local extended immunotherapy.
Starting on the day of islet transplantation, animals also received local immunosuppression delivered using a micro-osmotic pump such as the Alzet® 100 microL volume, 2-week continuous infusion, 0.25 microL/h delivery rate model 1002 pump (Durect Corp., Cupertino, Calif.). Both the device and the pump were implanted in the dorsal region of the rodents, and they were connected via a PE tubing. Animals were divided into controls receiving either local saline or no treatment and treatment groups receiving various immunosuppressive agents such as, for example, dexamethasone phosphate (20 mg/L), loteprednol etabonate (0.2, 0.5, and 10 mg/L), or a sphingosine-1-phosphate (S1P) receptor agonist (50 mg/L) from the micro-osmotic pump.

[2] = tested on: already-engrafted syngeneic islet grafts in rats; experiment: Effect of systemic immunosuppression on already-engrafted functional syngeneic islet grafts; conditions: for animals returning to normoglycemia / recovering function after drug withdrawal: after 40 days treatment
[3] = tested on: syngeneic islet grafts in chemically-diabetic Lewis rats; experiment: Effect of systemic immunosuppression given from day of syngeneic islet transplantation on engraftment and graft function in hybrid devices; conditions: for animals achieving normoglycemia at later times after withdrawal of immunosuppression: fraction of animals in group, single-drug treatment; for graft function while under treatment: syngeneic islets 3,000 IEQ, treatment from day of transplantation for 40 days, controls normoglycemic long-term
Protocol: To assess the impact of conventional systemic immunosuppression on islet engraftment and function in prevascularized hybrid devices, we carried out syngeneic islet transplantation in chemically-diabetic Lewis rats that were treated with either rapamycin or tacrolimus (alone or in combination) as described in Example 3, starting from the day of islet transplantation, for 40 days. Control animals received no treatment.

SMILES | allograft survival compared to control animals [1] | allograft survival compared to control animals ([1]; listed as dexametasone phosphate) | animals returning to normoglycemia / recovering function after drug withdrawal ([2]; already-engrafted graft) | animals displaying dysfunction while under treatment ([2]; fraction of animals, 40 days treatment of already-engrafted graft) | animals achieving normoglycemia at later times after withdrawal of immunosuppression [3] | graft function while under treatment [3] | graft function under systemic immunosuppression administered for 40 days ([2]; already-engrafted graft, >=40 days post implantation)
C[C@@H]1C[C@H]2[C@@H]3CCC4=CC(=O)C=C[C@]4(C)[C@@]3(F)[C@@H](O)C[C@]2(C)[C@@]1(O)C(=O)COP(=O)(O)O [dexamethasone phosphate] | clear extension of allograft survival | sizable extension of allograft survival | – | – | – | – | –
CCOC(=O)O[C@]1(C(=O)OCCl)CC[C@H]2[C@@H]3CCC4=CC(=O)C=C[C@]4(C)[C@H]3[C@@H](O)C[C@@]21C [loteprednol etabonate] | clear extension of allograft survival; also recorded: sizable extension of allograft survival | – | – | – | – | – | –
CO[C@H]1C[C@@H]2CC[C@@H](C)[C@@](O)(O2)C(=O)C(=O)N2CCCC[C@H]2C(=O)O[C@H]([C@H](C)C[C@@H]2CC[C@@H](O)[C@H](OC)C2)CC(=O)[C@H](C)/C=C(\C)[C@@H](O)[C@@H](OC)C(=O)[C@H](C)C[C@H](C)/C=C/C=C/C=C/1C [rapamycin, sirolimus] | – | – | returned to normoglycemia | ⅓ | ¼ | only partial function or primary non-function; also recorded: only partial or primary non-function | –
C=CC[C@@H]1/C=C(\C)C[C@H](C)C[C@H](OC)[C@H]2O[C@@](O)(C(=O)C(=O)N3CCCC[C@H]3C(=O)O[C@H](/C(C)=C/[C@@H]3CC[C@@H](O)[C@H](OC)C3)[C@H](C)[C@@H](O)CC1=O)[C@H](C)C[C@@H]2OC [tacrolimus] | – | – | ⅓ | – | ¼ | only partial function or primary non-function; also recorded: only partial or primary non-function | impaired graft function
